Source: patent US6620844B2, “Method for reducing blood insulin levels by reducing in vivo cathepsin L activity” (NewMillennium Pharmaceutical, Inc., priority 2001, dated 2003)
pKi: −log10 of the molar value. “Also recorded” adds a separate entry of the source.

Assays:
[1] = molecular target: Cathepsin S (Homo sapiens, UniProt P25774); details: at 1 × 10^−6 M; cited from earlier work
[2] = molecular target: Cathepsin B (Homo sapiens, UniProt P07858); details: cited from earlier work
[3] = molecular target: Cathepsin L (Homo sapiens, UniProt P07711); details: cited from earlier work
[4] = molecular target: T1, Cathepsin K (Homo sapiens, UniProt P43235); details: cited from earlier work
T1 sequence (P43235 115-329): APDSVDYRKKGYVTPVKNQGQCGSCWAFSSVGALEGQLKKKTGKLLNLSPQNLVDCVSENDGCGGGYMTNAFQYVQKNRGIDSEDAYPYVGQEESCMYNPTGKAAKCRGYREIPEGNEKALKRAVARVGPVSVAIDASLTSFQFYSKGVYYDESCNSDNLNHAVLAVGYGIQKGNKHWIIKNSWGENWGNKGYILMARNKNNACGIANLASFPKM

[5] = molecular target: Cathepsin C (Homo sapiens, UniProt P53634); details: at 1 × 10^−6 M; cited from earlier work
[6] = molecular target: T2, Papain (Carica papaya, UniProt P00784); details: cited from earlier work
T2 sequence (P00784 134-345): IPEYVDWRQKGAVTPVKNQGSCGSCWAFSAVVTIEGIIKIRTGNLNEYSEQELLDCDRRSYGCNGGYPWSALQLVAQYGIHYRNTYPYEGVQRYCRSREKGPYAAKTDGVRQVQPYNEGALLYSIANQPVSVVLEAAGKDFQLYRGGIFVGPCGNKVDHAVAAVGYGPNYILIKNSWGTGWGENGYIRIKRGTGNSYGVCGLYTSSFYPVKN

[7] = molecular target: T3, cathepsin B (Mus musculus, UniProt P10605); test: Cysteine protease active site labeling in mouse peritoneal macrophages: cathepsin B; assay type: cell-based; details: 10 μM
T3 construct: endogenous in cells; host or cells: thioglycolate-elicited mouse peritoneal macrophages
Description: (§1) FIG. 1. Cysteine protease inhibition profile by synthetic inhibitors in mouse peritoneal macrophages. [^125I]-Z-Tyr-Ala-CHN2-labeled mouse peritoneal macrophages were lysed and separated onto 12% SDS-PAGE to visualize labeled active cathepsins. Doses and inhibitors used were all indicated.
(§2) Mouse peritoneal macrophages were generated by injecting mice with thioglycolate as described in Shi et al. (2000) J. Exp. Med. 191:[…]. After 3-4 days of incubation, peritoneal microphages were washed out using Tris-EDTA buffers containing 6 mM EDTA (pH 8.0). Cells were then seeded onto 24-well plates in DMEM with 10% FBS till complete spread. After cells were attached to the plates, different doses of inhibitors were added. After 2-3 hours of incubation, cells were labeled with [^125I]-Z-Tyr-Ala-CHN2 overnight at 37° C. to detect intracellular active cysteine proteases. Cells were lysed into 1× reducing protein sample buffer and separated onto 12% SDS-PAGE.
(§3) First, the synthetic small molecule compounds were tested for their selectivity toward different forms of cathepsin. Mouse peritoneal macrophages were cultured in the presence of selective inhibitors and cysteine protease active site labeling probe [^125I]-Z-Tyr-Ala-CHN2 (Sukhova et al., supra). […] In contrast, other inhibitors used had no effect on cathepsin B activity. […] Therefore, these inhibitors can be utilized to test if the aforementioned cathepsins play roles in the breakdown of insulin receptor (IR) or IR turnover.

[8] = molecular target: T4, cathepsin L (Mus musculus, UniProt P06797); test: Cysteine protease active site labeling in mouse peritoneal macrophages: cathepsin L; assay type: cell-based; details: 10 μM, mouse peritoneal macrophages
T4 construct: endogenous in cells; host or cells: thioglycolate-elicited mouse peritoneal macrophages
Description: as §1, §2, §3

[9] = molecular target: T5, cathepsin K (Mus musculus, UniProt P55097); test: Cysteine protease active site labeling in mouse peritoneal macrophages: cathepsin K; assay type: cell-based; details: 10 μM
T5 construct: endogenous in cells; host or cells: thioglycolate-elicited mouse peritoneal macrophages
T5 sequence (P55097 115-329): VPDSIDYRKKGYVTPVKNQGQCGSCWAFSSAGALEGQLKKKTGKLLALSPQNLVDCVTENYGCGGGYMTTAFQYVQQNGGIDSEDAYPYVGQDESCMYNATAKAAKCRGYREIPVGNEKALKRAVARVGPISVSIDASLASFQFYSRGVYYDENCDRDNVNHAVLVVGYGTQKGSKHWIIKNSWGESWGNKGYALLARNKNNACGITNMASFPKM
Description: as §1, §2, §3

[10] = test system: insulin receptor β subunit; test: Insulin receptor turnover in human preadipocytes, Western blot; assay type: cell-based; details: 10 μM, human preadipocytes
Description: FIG. 2. […] Human preadipocytes were incubated with and without inhibitors indicated at different doses, lysed, separated onto 7% SDS-PAGE, and probed with goat anti-human insulin receptor β-subunit polyclonal antibodies. Both mature β subunit and its precursor were indicated.
(§4) Human preadipocytes were initially cultured in MSCGM medium (BioWhitaker) at 37° C. and 5% CO2 for 7 to 12 days with 3-4 changes of media till complete confluence. Non-induced cells were kept in adipogenesis maintenance media containing 0.01 mg/ml of insulin, 0.05 units/ml of penicillin, 0.05 μg/ml of streptomycin, and 10% fetal bovine serum. To induce adipogenesis, complete confluent cells were cultured in adipogenesis induction medium containing 1 μM dexamethasone, 0.2 mM indomethacin, 0.01 mg/ml insulin, 0.5 mM 3-isobutyl-1-methyl-xanthine, 0.05 units/ml of penicillin, 0.05 μg/ml of streptomycin, and 10% fetal bovine serum in the presence and absence of protease inhibitors for 3 days followed by three days of culture in maintenance media. After three cycles of induction and maintenance, cells were cultured in maintenance media for additional 7 days with two changes of fresh media.
(§5) After differentiation, cells were collected, and lysed into 1×RIPA buffer. Protein concentrations were determined using Bio-Rad Dc protein assay system according to the manufacturer (Bio-Rad, Hercules, Calif.). Equal amount of proteins were separated on 7% SDS-PAGE for detecting IR and IGF-1R, 12% SDS-PAGE for detecting cathepsins S, K, and L antigens. Both IR and IGF-1R primary polyclonal antibodies were raised from goat and all cathepsin antibodies were polyclonal antibodies raised from rabbit. The corresponding HRP-conjugated secondary antibodies were used for detections.
To test which cathepsin is involved in the IR turnover, human preadipocytes (BioWhittaker, Walkersville, Md.) were induced to become adipocytes in the presence and absence of inhibitors. Differentiated adipocytes expressed more IR than controls as previously reported. Pederson et al. (2000) Biochem. Biophys. Res. Commun. 276:162-168. Cathepsin B inhibitor (CA 074, 10 μM) and catepsin S inhibitor (CLIK 060, 2 μM) had no effect on either IR turnover or differentiation (FIGS. 2). […] The same is true when the blot was tested with insulin like growth factor I receptor (IGF-IR) antibodies (FIG. 3).

[11] = test system: insulin like growth factor I receptor (IGF-IR); test: IGF-IR levels in human preadipocytes, Western blot; assay type: cell-based; details: 10 μM
Description: FIG. 3. […] Cells were treated as in FIG. 2. Western blot analysis was performed using goat anti-human IGF-1R polyclonal antibodies.
as §4, §5
To test which cathepsin is involved in the IR turnover, human preadipocytes (BioWhittaker, Walkersville, Md.) were induced to become adipocytes in the presence and absence of inhibitors. Differentiated adipocytes expressed more IR than controls as previously reported. Pederson et al. (2000) Biochem. Biophys. Res. Commun. 276:162-168. Cathepsin B inhibitor (CA 074, 10 μM) and catepsin S inhibitor (CLIK 060, 2 μM) had no effect on either IR turnover or differentiation (FIGS. 2). […]

[12] = test system: CCAAT/enhancer-binding protein-α (C/EBP-α); test: C/EBP-α levels in human preadipocytes, Western blot; assay type: cell-based; details: human preadipocytes differentiated with inhibitor, FIG. 4
Description: FIG. 4. Inhibition of cathepsin L blocked the expression of CCAAT/enhancer-binding protein. Human preadipocytes were differentiated as in FIG. 2. A 10% gel was used to perform Western blot analysis using goat anti-human C/EBP-α polyclonal antibodies and the blot was detected using the corresponding HRP-conjugated secondary antibodies.
as §4
(§6) To evaluate the cell differentiation levels affected by aforementioned inhibitors, the levels of transcription factors CCAAT/enhancer-binding protein-α (C/EBP-α) as well as peroxisome proliferator-activated receptor-γ (PPAR-γ) from cells treated with and without inhibitors were measured. Both C/EBP-α and PPAR-γ are important adipocyte determination factors. Wu et al. (1999) Mol. Cell. 3:151-158; Tanaka et al. (1997) EMBO J. 16:7432-7443; and Tontonoz et al. (1994) Cell 79:1147-1156.

[13] = test system: peroxisome proliferator-activated receptor-γ (PPAR-γ); test: PPAR-γ levels in human preadipocytes, Western blot; assay type: cell-based; details: human preadipocytes differentiated with inhibitor, FIG. 5
Description: FIG. 5. Inhibition of cathepsin L blocked the expression of PPAR-γ. Human preadipocytes were used and Western blot analysis was performed as in FIG. 4 instead of using mouse anti-human PPAR-γ monoclonal antibodies as the primary antibodies.
as §4, §6

[14] = test system: human preadipocytes; test: Human preadipocyte adipogenesis, oil-red staining; assay type: cell-based; details: 10 μM, human preadipocytes
Description: FIG. 6. Oil-red staining of human preadipocytes and adipocytes.
as §4
This hypothesis is further confirmed by oil-red staining of CLIK 148 or 195 treated preadipocytes (FIG. 6). In addition, inhibition of adiogenesis by these two inhibitors is dose dependent. Less than 50% of adipogenesis was blocked by 1 μM of such inhibitors. […] In contrast, 1 μM of CLIK 060, 1 or 10 μM of CA 074 had no effect on adipogenesis (data not shown). Therefore, these observations indicate that cathepsin L appears to play a more critical role than cathepsins S and K in adipogenesis by controlling insulin/IR complex turnover.

[15] = test system: mouse 3T3-L1 cells; test: Mouse 3T3-L1 preadipocyte adipogenesis, oil-red staining; assay type: cell-based; details: 15 μM
Description: FIG. 9. Effect of cathepsin L inhibitor during mouse 3T3-L1 preadipocyte differentiation. Mouse 3T3-L1 cells were induced for adipogenesis. CLIK 148 (10 μM) was […] at different time points (days) during adipogenesis. Cells were stained with oil-red at the end of differentiation.
Mouse preadipocytes were differentiated as described in Patel and Lane (2000) J. Biol. Chem. 275:17653-17660. In brief, mouse 3T3-L1 cells were cultured in DMEM containing 10% calf serum till confluence at 37° C. with 10% CO2. After additional two days maintenance in the same media, cells were differentiated by adding 0.5 mM methylisobutylxanthine, 1 μM dexmethasone, 1 μg/ml insulin, and 10% FBS for two days in the presence and absence of protease inhibitors. Culture media were replaced with DMEM containing 1 μg/ml insulin and 10% FBS. After day 4 the cells were fed every other day with 10% FBS in DMEM without insulin. By days 7-8, cells were fully differentiated.
Similar phenotypes were observed using mouse preadipocytes 3T3-L1 (ATCC, Manassas, Va.). Both active cathepsins L and S were found in differentiated adipocytes (FIG. 8, days 8-11). However, levels of both enzyme increased after the differentiation, a phenomenon different from that of human preadipoicytes. […] Cathepsin K antigen was detected in preadipocytes but not adipocytes nor insulin treated cells (FIG. 10).

[16] = test system: rat model of human glomerular disease; details: cited from earlier work

Chain of Cathepsin L (P07711 114-333, species assumed): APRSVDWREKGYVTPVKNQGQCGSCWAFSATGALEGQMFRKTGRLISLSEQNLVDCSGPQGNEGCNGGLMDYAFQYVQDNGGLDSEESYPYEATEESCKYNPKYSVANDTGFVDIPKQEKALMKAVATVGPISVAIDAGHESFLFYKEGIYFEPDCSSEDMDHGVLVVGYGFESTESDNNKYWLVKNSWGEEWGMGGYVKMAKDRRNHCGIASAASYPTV
Chain of Cathepsin S (P25774 115-331, species assumed): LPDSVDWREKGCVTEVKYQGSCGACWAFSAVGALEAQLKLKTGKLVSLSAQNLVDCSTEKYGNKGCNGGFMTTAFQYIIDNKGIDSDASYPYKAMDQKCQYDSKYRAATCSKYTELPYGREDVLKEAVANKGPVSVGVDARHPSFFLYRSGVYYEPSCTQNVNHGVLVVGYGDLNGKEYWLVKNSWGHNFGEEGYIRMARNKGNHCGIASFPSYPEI
T4 sequence (P06797 114-334): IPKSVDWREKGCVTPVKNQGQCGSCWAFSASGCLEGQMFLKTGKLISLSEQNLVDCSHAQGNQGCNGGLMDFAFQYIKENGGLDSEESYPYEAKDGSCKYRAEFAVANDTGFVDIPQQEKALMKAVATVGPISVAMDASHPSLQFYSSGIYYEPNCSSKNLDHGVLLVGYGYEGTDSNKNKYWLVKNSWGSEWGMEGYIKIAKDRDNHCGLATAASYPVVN
Chain of Cathepsin C (P53634 25-463, species assumed): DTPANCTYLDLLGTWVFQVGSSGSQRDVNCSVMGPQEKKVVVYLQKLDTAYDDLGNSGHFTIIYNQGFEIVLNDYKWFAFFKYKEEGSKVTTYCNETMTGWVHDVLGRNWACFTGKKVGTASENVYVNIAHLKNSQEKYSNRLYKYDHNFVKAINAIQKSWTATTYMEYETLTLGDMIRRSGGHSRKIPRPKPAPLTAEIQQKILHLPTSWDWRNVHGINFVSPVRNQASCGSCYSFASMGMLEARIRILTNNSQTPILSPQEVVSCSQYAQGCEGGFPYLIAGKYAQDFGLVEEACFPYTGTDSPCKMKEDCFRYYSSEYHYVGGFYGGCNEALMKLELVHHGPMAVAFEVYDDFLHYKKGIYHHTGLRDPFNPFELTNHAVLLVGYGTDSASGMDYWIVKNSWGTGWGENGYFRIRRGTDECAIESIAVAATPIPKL
T3 sequence (P10605 80-333 limits assumed): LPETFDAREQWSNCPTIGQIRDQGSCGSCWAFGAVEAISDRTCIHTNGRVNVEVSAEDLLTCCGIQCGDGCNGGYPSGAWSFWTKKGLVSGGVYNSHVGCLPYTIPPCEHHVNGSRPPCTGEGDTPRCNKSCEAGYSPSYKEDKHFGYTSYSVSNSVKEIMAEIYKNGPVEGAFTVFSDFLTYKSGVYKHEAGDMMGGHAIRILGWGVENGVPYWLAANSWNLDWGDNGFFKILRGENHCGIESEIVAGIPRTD

CN(C)C(=O)[C@H](Cc1ccccc1)NC(=O)C1O[C@@H]1C(=O)N[C@@H](Cc1ccccc1)C(=O)N(C)C (stereo partly shown)
% of Inhibition, Cathepsin S [1]: 25%
% of Inhibition, Cathepsin B ([2]; at 1 × 10^−6 M): 0%
% of Inhibition, Cathepsin L ([3]; at 1 × 10^−6 M): 100%
% of Inhibition, Cathepsin K ([4]; at 1 × 10^−6 M): 0%
% of Inhibition, Cathepsin C [5]: 0%

CCOC(=O)[C@H]1N[C@@H]1C(=O)NC(CC(C)C)C(=O)COC(=O)c1ccccc1 (stereo partly shown)
Cathepsin B: K2nd [2]: 1,607 M^−1Min^−1
Cathepsin L: K2nd [3]: 16,261 M^−1Min^−1
Papain: K2nd [6]: 1,533 M^−1Min^−1

O=C(CNC(=O)[C@H](Cc1ccccc1)NC(=O)OCc1ccccc1)NOC(=O)c1ccccc1
pKi [2]: 9.05 to 9.10
pKi [3]: 10.10 to 10.40
pKi [4]: 7.80 to 7.92
pKi [6]: 8.30 to 8.70

CN(C)C(=O)[C@H](Cc1ccccc1)NC(=O)[C@H]1O[C@@H]1C(=O)NCCc1ccccn1 (relative stereo) [CLIK 148, L-(+)-(2S, 3S)-N-[2-(2′-pyridinyl)-1-ethyl]-Na-amino-(L-phenylalaninedimethylamide)-trans-epoxysuccinamide]
cathepsin B activity (active site labeling) [7]: not
cathepsin L activity (active site labeling) [8]: completely inhibited
cathepsin K activity (active site labeling) [9]: not
levels of 95 kDa IR β subunit and its precursor [10]: increased levels
levels of IGF-IR β subunit and its precursor (the same as for IR) [11]: increased levels
accumulation of 50 kDa C/EBP-α [12]: blocking the accumulation
accumulation of 50 kDa PPAR-γ [13]: blocking the accumulation
inhibition of adipogenesis / differentiation [14]: complete inhibition; also recorded: completely blocked
inhibition of adipogenesis in 3T3-L1 cells [15]: inhibition of adipogenesis

CC(C)CCNC(=O)[C@H](CC(C)C)NC(=O)[C@H]1O[C@@H]1C(=O)O (relative stereo) [trans-epoxysuccinyl-L-leucylamido-(3-methyl)butane]
proteinuria [16]: significantly reduced
